The record followed here is PMC8122671, “New Succinimides with Potent Anticancer Activity: Synthesis, Activation of Stress Signaling Pathways and Characterization of Apoptosis in Leukemia and Cervical Cancer Cells” (International Journal of Molecular Sciences, 2021).

“Also recorded” adds a separate entry of the source. Like-named read-outs stand apart in the source and are kept apart here.

In test [1] the test system is HeLa (human cervix carcinoma) cells. As to the kind of experiment: MTT cytotoxicity assay, HeLa. The format is cell-based. The conditions noted are these: 48 h incubation, average (SD) of three experiments, read-out: IC50 HeLa. A general note: Formazan colour is commonly taken as a measure of viable cells.
Test [2] has as its system K562 (myelogenous leukemia cell line). Put plainly: MTT cytotoxicity assay, K562. The format is cell-based, human. The following applies: 48 h incubation, average (SD) of three experiments, read-out: IC50 K562.
The test system of test [3] is MOLT-4 (Human T-Lymphoid Cell Line). Put plainly: MTT cytotoxicity assay, MOLT-4. It is filed as cell-based. The following applies: MOLT-4, 48 h incubation, average (SD) of three experiments, read-out: IC50 MOLT-4.
Test [4] has as its system HUVEC (normal endothelial) cells. As to the kind of experiment: MTT cytotoxicity assay, HUVEC. The following applies: Homo sapiens, 48 h incubation, average (SD) of three experiments, read-out: IC50 HUVEC. The format is cell-based.
Test [5] deals with caspase 3/7 in K562 cells. As to the kind of experiment: Caspase-3/7 activity assay (Apo-ONE) in K562 cells. The format is cell-based, human. The conditions noted are these: K562, 18 h, test compound at 5xIC50, staurosporine 1 μM; vs 1% DMSO. Here is the method:
After incubation for 18 h, K562 cells were lysed and the activity of caspase 3/7 was measured using a profluorescent peptide substrate.
First, 20 × 10^3 K562 cells were seeded on each well of a 96-well plate in RPMI 1640 medium supplemented with 10% fetal calf serum and antibiotics. Cells were grown for 24 h at 37 °C and 5% CO2. Test dicarboximides were dissolved in DMSO and added to cell culture to the final concentration of 5 × IC50. […] Cells were exposed to test compounds for 18 h at 37 °C and 5% CO2. Subsequently, the activity of caspase 3 and 7 was measured by Apo-ONE® Homogeneous Caspase-3/7 Assay (Promega, Madison, WI, USA) according to the manufacturer’s instructions. Briefly, the cells were lysed and incubated for 1.5 h with a profluorescent substrate for caspase 3 and 7. Next, the fluorescence was read at an excitation wavelength of 485 nm and emission of 520 nm with a FLUOStar Omega microplate reader (BMG-Labtech, Offenburg, Germany).

Test [6] concerns plasmid DNA (pcDNA3.1HisC). Put plainly: DNA-cleavage protection assay (BamHI digestion of plasmid DNA). The format is biochemical. The conditions noted are these: 100 µM, overnight 37 °C, then BamHI 3 h. How it is done: A DNA-cleavage protection assay has been successfully used for the identification of compounds that bind DNA either covalently or noncovalently. Such binding may result in DNA being less susceptible to enzymatic cleavage. […] It was also reported that naphtalenoimides or indolomaleimides intercalate into DNA [13, 14]. […] In CD studies, a synthetic 23-nt duplex DNA or bovine thymus DNA was incubated with compound Ic or daunorubicin (reference compound). […] Using a DNA-cleavage protection assay, we investigated whether selected compounds 2c, 2d, and 2f and 3c, 3d, and 3f interact with a plasmid DNA, resulting in increased resistance to endonucleolytic cleavage. Plasmid DNA (pcDNA3.1HisC) containing a single BamHI cleavage site was incubated with test compounds and subsequently digested with BamH1 restriction endonuclease. Daunorubicin (a strong DNA-intercalating agent) was used as a reference compound. Non-digested plasmid DNA existed predominantly in the circular form; however, the superhelical and linear forms were also detected (Figure 5, lane 1). […] This observation can be explained by the higher lipophilicity of 3c, 3d, and 3f compared to 2c, 2d, and 2f, which may facilitate their more efficient binding to DNA.
First, 0.5 μg of plasmid DNA (pcDNAHisC, total length 5.5 kbp) containing a unique BamHI restriction site was dissolved in a 1× BamHI reaction buffer and incubated overnight at 37 °C with the test compounds or daunorubicin. Daunorubicin, a strong intercalating agent, was used as a positive control. The concentration of the test compounds and daunorubicin samples was 100 µM. In the next step, the reaction mixtures were digested with BamHI restriction endonuclease (2 U/μL) for 3 h at 37 °C. The total reaction volume was 10 μL. Products of the reaction were subjected to the 1% agarose gel electrophoresis in TBE buffer. The gel was stained with ethidium bromide, and DNA fragments were visualized under a UV lamp (GBox, Syngene).

As usually defined, the IC50 is the midpoint of a concentration-inhibition curve. For the molecule `CCN(CC)CC(O)CN1C(=O)C2C(C1=O)C1(CC)C(=O)C2(CC)C(c2ccccc2)=C1c1ccccc1` (centres unmarked) [2d, 4-[3-(diethylamino)-2-hydroxypropyl]-1,7-diethyl-8,9-diphenyl-4-azatricyclo [5.2.1.0^2,6]dec-8-ene-3,5,10-trione], the concentration for half-maximal inhibition (IC50) was 18 µM in test [1]; 5.8 µM in test [2]; under 6 µM in test [2] (Homo sapiens, K562, 48 h); 14 µM in test [3]; 3.6 µM in test [4]. In test [5], the “activity of caspase 3/7” value was “over eight-fold increase in caspase activity; also recorded: activated caspase 3 and 7”. Also, the “protection of plasmid DNA from BamHI digestion (circular DNA left)” value (shortened to “protection of plasmid DNA”) in test [6] is given as “the circular form was also detected”.

With `CC(C)(C)NCC(O)CN1C(=O)C2C(C1=O)C1(c3ccccc3)CC2(c2ccccc2)C(c2ccccc2)=C1c1ccccc1` (centres unmarked) [3c, 4-[3-(tert-butylamino)-2-hydroxypropyl]-1,7,8,9-tetraphenyl-4-azatricyclo[5.2.1.0^2,6]dec-8-ene-3,5-dione], the half-inhibitory concentration (IC50) in test [1] worked out at 2 µM; in test [3] it was 2.6 µM; in test [4] it was 0.4 µM. Also, the “activity of caspase 3/7” value in test [5] was “activated caspase 3/7 to a lesser extent; also recorded: activated caspase 3 and 7”. Further, in test [6], the “protection of plasmid DNA” value was “interaction seems to be stronger”.

For the molecule `CCC12C(=O)C(CC)(C(c3ccccc3)=C1c1ccccc1)C1C(=O)N(CC(O)CNC(C)(C)C)C(=O)C12` (centres unmarked) [2c, 4-[3-(tert-butylamino)-2-hydroxypropyl]-1,7-diethyl-8,9-diphenyl-4-azatricyclo [5.2.1.0^2,6]dec-8-ene-3,5,10-trione], the IC50 in test [1] is 3.2 µM; in test [2] it was 4 µM; in test [2] (Homo sapiens, K562, 48 h), under 6 µM; in test [3] it was 2.5 µM; in test [4], 3.3 µM. In test [5], the “activity of caspase 3/7” value was “over eight-fold increase in caspase activity; also recorded: activated caspase 3 and 7”. Also, the “protection of plasmid DNA” value in test [6] is “the circular form was also detected”.

Consider `CCN(CC)CC(O)CN1C(=O)C2C(C1=O)C1(c3ccccc3)CC2(c2ccccc2)C(c2ccccc2)=C1c1ccccc1` (centres unmarked) [3d, 4-[3-(diethylamino)-2-hydroxypropyl]-1,7,8,9-tetraphenyl-4-azatricyclo[5.2.1.0^2,6]dec-8-ene-3,5-dione], for which the IC50 in test [1] is 1.9 µM; in test [2], 3.2 µM; in test [2] (Homo sapiens, K562, 48 h) it was under 6 µM; in test [3], 2.2 µM; in test [4], 0.3 µM. The “activity of caspase 3/7” value in test [5] was “activated caspase 3/7 to a lesser extent; also recorded: activated caspase 3 and 7”. Further, the “protection of plasmid DNA” value in test [6] is given as “interaction seems to be stronger”.
